The text below walks through data of ChEMBL document CHEMBL6109156, “Discovery of Dual PD-L1/HDAC3 Inhibitors for Tumor Immunotherapy” (J Med Chem, 2025).

pIC50: −log10 of the molar value. Calls of active or inactive are those of the source. No cut-off for these calls is given here.

The test system of assay [1] is B16-F10. Description: Induction of apoptosis in mouse B16-F10 cells assessed as early apoptotic cells at 2 uM incubated for 48 hrs by Annexin V-FITC/PI staining based flow cytometry analysis (reference value: 0.45 %). The format is functional. A general note: In flow cytometry, cells or beads pass a laser one at a time.
In assay [2] the test system is A-375. Description: Antiproliferative activity against human A-375 cells co-cultured with human Jurkat T cells incubated for 48 hrs by MTT assay. The following applies: dose 0.0625-1 µM. The format is functional, cell-based. For orientation: Formazan colour is commonly taken as a measure of viable cells.
Assay [3] relates to A-375. Description: Antiproliferative activity against human A-375 cells assessed as cell growth inhibition incubated for 48 hrs by MTT assay. The format is functional, cell-based. The following applies: A-375, 48 h.
The test system of assay [4] is B16-F10. The assay can be described thus: Induction of apoptosis in mouse B16-F10 cells assessed as necrotic cells at 2 uM incubated for 48 hrs by Annexin V-FITC/PI staining based flow cytometry analysis (reference value: 2.24%). The format is functional.
The subject of assay [5] is B16-F10. Description: Induction of apoptosis in mouse B16-F10 cells assessed as viable cells at 2 uM incubated for 48 hrs by Annexin V-FITC/PI staining based flow cytometry analysis (reference value: 92.3%). The class given is functional. Conditions: read-out: Activity.
Assay [6] relates to B16-F10. Description: Induction of apoptosis in mouse B16-F10 cells assessed as necrotic cells at 10 uM incubated for 48 hrs by Annexin V-FITC/PI staining based flow cytometry analysis (reference value: 2.24%). The format is functional.
Assay [7] has as its system B16-F10. Description: Induction of apoptosis in mouse B16-F10 cells assessed as necrotic cells at 4 uM incubated for 48 hrs by Annexin V-FITC/PI staining based flow cytometry analysis (reference value: 2.24%). The class given is functional.
In assay [8] the test system is B16-F10. The assay can be described thus: Induction of cell cycle arrest in mouse B16-F10 cells assessed as accumulation of cells at G0/G1 phase at 1 uM incubated for 48 hrs by PI staining based flow cytometry analysis (reference value: 70.09%). The class given is functional.
The subject of assay [9] is B16-F10. The assay can be described thus: Immunomodulatory activity in mouse B16-F10 cells implanted in C57BL/6J mouse assessed as percentage of CD3 positive CD4 positive cells in tumor at 20 mg/kg, ip administered once daily for 9 days by flow cytometric analysis (reference value: 0.20 %). The following applies: time 9 day. The format is functional.
For assay [10], the system named is B16-F10. The assay can be described thus: Induction of cell cycle arrest in mouse B16-F10 cells assessed as accumulation of cells at S phase at 2 uM incubated for 48 hrs by PI staining based flow cytometry analysis (reference value: 24.04%). The class given is functional.
The target in the next assay is Histone deacetylase 3 (Homo sapiens, UniProt O15379). The assay can be described thus: Inhibition of human recombinant HDAC3 using Ac-Leu-Gly-Lys (Ac)-AMC as substrate at 0.1 uM preincubated for 10 mins followed by substrate addition and measured after 45 mins by TECAN microtiter plate reader analysis relative to control. Conditions: time 55.0 min.
Sequence of Histone deacetylase 3 (O15379 whole entry): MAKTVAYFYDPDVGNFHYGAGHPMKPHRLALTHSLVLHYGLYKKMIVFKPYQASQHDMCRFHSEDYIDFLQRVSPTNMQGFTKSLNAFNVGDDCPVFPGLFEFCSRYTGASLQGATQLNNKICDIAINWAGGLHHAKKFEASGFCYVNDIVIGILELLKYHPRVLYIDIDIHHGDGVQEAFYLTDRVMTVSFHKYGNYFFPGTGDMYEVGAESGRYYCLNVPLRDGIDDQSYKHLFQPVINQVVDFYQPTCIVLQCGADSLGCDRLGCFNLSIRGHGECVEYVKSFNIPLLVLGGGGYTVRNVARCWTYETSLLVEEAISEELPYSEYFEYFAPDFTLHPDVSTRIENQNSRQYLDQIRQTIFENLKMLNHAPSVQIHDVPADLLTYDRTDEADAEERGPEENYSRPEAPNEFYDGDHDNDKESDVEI
For assay [11], the system named is B16-F10. The assay can be described thus: Induction of cell cycle arrest in mouse B16-F10 cells assessed as accumulation of cells at G2/M phase at 4 uM incubated for 48 hrs by PI staining based flow cytometry analysis (reference value: 5.87%). The class given is functional.
Assay [12] relates to B16-F10. The assay can be described thus: Induction of cell cycle arrest in mouse B16-F10 cells assessed as accumulation of cells at G2/M phase at 8 uM incubated for 48 hrs by PI staining based flow cytometry analysis (reference value: 5.87%). The class given is functional.
For assay [13], the target named is T1, Protein deacetylase HDAC6 (Homo sapiens, UniProt Q9UBN7).
T1 sequence (Q9UBN7 whole entry): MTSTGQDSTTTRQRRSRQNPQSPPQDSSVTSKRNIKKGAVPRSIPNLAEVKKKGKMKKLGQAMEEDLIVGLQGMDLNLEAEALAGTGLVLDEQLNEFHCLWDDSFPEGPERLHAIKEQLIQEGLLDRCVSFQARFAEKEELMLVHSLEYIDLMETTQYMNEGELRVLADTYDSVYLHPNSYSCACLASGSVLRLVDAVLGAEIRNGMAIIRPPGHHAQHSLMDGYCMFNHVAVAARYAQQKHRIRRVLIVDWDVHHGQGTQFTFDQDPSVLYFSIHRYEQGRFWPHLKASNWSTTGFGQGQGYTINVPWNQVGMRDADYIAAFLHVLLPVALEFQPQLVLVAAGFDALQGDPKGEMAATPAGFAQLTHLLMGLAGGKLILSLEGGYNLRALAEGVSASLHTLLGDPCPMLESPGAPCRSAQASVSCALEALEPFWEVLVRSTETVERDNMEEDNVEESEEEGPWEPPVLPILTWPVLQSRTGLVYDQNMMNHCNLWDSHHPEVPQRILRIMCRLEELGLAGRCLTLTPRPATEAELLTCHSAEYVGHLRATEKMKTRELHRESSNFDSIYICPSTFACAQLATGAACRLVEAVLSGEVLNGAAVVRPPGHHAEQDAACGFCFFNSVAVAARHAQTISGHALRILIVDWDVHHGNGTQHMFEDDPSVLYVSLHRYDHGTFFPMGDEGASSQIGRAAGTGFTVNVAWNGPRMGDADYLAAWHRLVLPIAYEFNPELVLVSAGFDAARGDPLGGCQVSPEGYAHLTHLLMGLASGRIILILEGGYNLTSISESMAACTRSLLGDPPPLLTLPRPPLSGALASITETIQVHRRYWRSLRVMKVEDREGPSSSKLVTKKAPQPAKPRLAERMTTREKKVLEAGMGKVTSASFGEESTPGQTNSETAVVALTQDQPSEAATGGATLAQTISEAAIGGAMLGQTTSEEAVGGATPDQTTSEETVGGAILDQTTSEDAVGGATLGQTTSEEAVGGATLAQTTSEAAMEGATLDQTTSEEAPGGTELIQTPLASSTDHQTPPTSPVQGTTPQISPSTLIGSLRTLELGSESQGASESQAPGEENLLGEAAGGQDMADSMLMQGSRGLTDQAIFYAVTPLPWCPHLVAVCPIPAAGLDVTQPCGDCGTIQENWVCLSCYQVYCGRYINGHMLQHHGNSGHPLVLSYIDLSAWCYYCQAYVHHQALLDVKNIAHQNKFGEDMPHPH
The assay can be described thus: Inhibition of human recombinant HDAC6 using Ac-Leu-Gly-Lys (Ac)-AMC as substrate preincubated for 10 mins followed by substrate addition and measured after 45 mins by TECAN microtiter plate reader analysis.

The test system of a further assay is Jurkat. The assay can be described thus: Antiproliferative activity against human Jurkat T cells assessed as cell viability incubated for 48 hrs by MTT assay. The format is functional, cell-based.
In assay [14] the test system is A-375. Description: Antiproliferative activity against human A-375 cells assessed as cell viability incubated for 48 hrs by MTT assay. The format is functional, cell-based.
Assay [15] deals with B16-F10. Description: Immunomodulatory activity in mouse B16-F10 cells implanted in C57BL/6J mouse assessed as percentage of CD3 positive CD8 positive cells in tumor at 20 mg/kg, ip administered once daily for 9 days by flow cytometric analysis (reference value: 0.44 %). Conditions: time 9 day. The format is functional.

The pIC50 is the negative decadic logarithm of the IC50, by convention in mol/L. For orientation: inhibition means how much of the control response was suppressed. Regarding `CCCNNC(=O)CCCNCc1ccc(-c2cccc(-c3ccccc3)c2C)nc1OC`, the Activity was 9.81% in the assay on B16-F10 [1]; “Dose-dependent-effect” with A-375 [2]; 4.4% with B16-F10 [4]; 1.04% with B16-F10 [6]; 4.08% with B16-F10 [7]; 73.46% in the assay with B16-F10 [8]. For the same molecule, the Activity is given as 1.75% with B16-F10 [9]; 7.79% in the assay on B16-F10 [10]; 3.65% in the assay with B16-F10 [11]; 2.69% with B16-F10 [12]; 4.31% in the assay on B16-F10 [15]. Further, the pIC50 was 5.46 in the assay with A-375 [3] and below 5.00 in assay [13]. For the same molecule, the viability at 2 µM with B16-F10 [5] was 71.7%. Besides, the inhibition at Histone deacetylase 3 stood at 42%. Further, the outcome with Jurkat and in the assay on A-375 [14] was Active.
